US8420811B2, “Tetrahydroisoquinolines and intermediates therefor” (Bristol-Myers Squibb Company, priority 2008, dated 2013)
Values after ≈ are worked out from the molar mass of the structure shown.

Legend:
Type in all cases: physicochemical
[1] = pH-Solubility profile (aqueous solubility); settings: for solubility: aqueous solution, aqueous buffer
[2] = Solubility profile (USP definition) in solvents
pKa = assay: pKa
Distribution coefficient = assay: Distribution coefficient
Solution pH = settings: at about 1 μg/mL concentration in water

CN1Cc2cc(-c3ccc(N)nn3)ccc2[C@H](c2ccc3ccccc3c2)C1 [Compound 2, (S)-6-(2-methyl-4-(naphthalen-2-yl)-1,2,3,4-tetrahydroisoquinolin-7-yl)pyridazin-3-amine]
solubility ([1]; at pH 2.0): 15600 µg/mL (≈ 42.6 mM) | solubility ([1]; at pH 4.4): 1760 µg/mL (≈ 4.8 mM) | solubility ([1]; at solution pH 6.5 and above): ≤ 1 µg/mL

CN1Cc2cc(-c3ccc(N)nn3)ccc2[C@H](c2ccc3ccccc3c2)C1 [Form N-1, 6-[(4S)-1,2,3,4-tetrahydro-2-methyl-4-(2-naphthalenyl)-7-isoquinolinyl]-3-pyridazinamine]
aqueous solubility (in words) ([1]; general statement, no pH given): high aqueous solubility | Solubility profile (USP definition) ([2]; N,N-dimethylacetamide): soluble: N,N-dimethylacetamide, dimethylsulfoxide | Solubility profile (USP definition) ([2]; PEG 400): sparingly soluble: PEG 400 | Solubility profile (USP definition) ([2]; acetone): slightly soluble: isopropanol, acetone, ethanol, methanol | Solubility profile (USP definition) ([2]; acetonitrile): very slightly soluble: acetonitrile, ethyl acetate, n-butanol | Solubility profile (USP definition) ([2]; dichloromethane): slightly soluble: isopropanol, acetone, ethanol, methanol | Solubility profile (USP definition) ([2]; dimethylsulfoxide): soluble: N,N-dimethylacetamide, dimethylsulfoxide | Solubility profile (USP definition) ([2]; ethanol): slightly soluble: isopropanol, acetone, ethanol, methanol | Solubility profile (USP definition) ([2]; ethyl acetate): very slightly soluble: acetonitrile, ethyl acetate, n-butanol | Solubility profile (USP definition) ([2]; isopropanol): slightly soluble: isopropanol, acetone, ethanol, methanol | Solubility profile (USP definition) ([2]; methanol): slightly soluble: isopropanol, acetone, ethanol, methanol | Solubility profile (USP definition) ([2]; n-butanol): very slightly soluble: acetonitrile, ethyl acetate, n-butanol | Solubility profile (USP definition) ([2]; n-heptane): practically insoluble: n-heptane | Solubility profile (USP definition) ([2]; propylene glycol): slightly soluble: isopropanol, acetone, ethanol, methanol | Solubility profile (USP definition) ([2]; tetrahydrofuran): freely soluble: tetrahydrofuran | pKa (pKa; first of two printed pKa values): 4.9 | pKa (pKa; second of two printed pKa values): 7.8 | Distribution coefficient Log Do/b (Distribution coefficient; at pH 6.5): 3.10 | Distribution coefficient Log Do/b (Distribution coefficient; at pH 7.4): 3.82 | Solution pH (Solution pH): ~7.0 at about 1 μg/mL concentration in water
